Several values for one entry are separate records, joined by “and”; a condition that tells them apart may be missing. Equal entries are not always repeated. Toxic doses and inconclusive results are not listed. Rule as the data show it: active = T/C of 150% or more; inactive = T/C below 125%.
System: L1210 leukemia ip in BDF1 mice, survival T/C
Assay: NCI In Vivo Anticancer Drug Screen. Data for tumor model L1210 Leukemia (intraperitoneal) in B6D2F1 (BDF1) mice
Conditions: endpoint: mean survival time, higher = longer survival
Outline: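 Each compound was tested against a transplantable tumor grown in mice. The endpoint was survival, with treated animals benchmarked against vehicle controls as a simple ratio.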

[1] = dose: 100.0 mg/kg/injection, schedule: Q01DX009 (ip), vehicle: saline with Tween-80
[2] = dose: 200.0 mg/kg/injection, schedule: Q01DX009 (ip), vehicle: saline with Tween-80
[3] = dose: 400.0 mg/kg/injection, schedule: Q01DX009 (ip), vehicle: saline with Tween-80
[4] = dose: 100.0 mg/kg/injection, schedule: Q04DX002 (ip), vehicle: Klucel (hydroxypropylcellulose) (HPC)
[5] = dose: 200.0 mg/kg/injection, schedule: Q04DX002 (ip), vehicle: Klucel (hydroxypropylcellulose) (HPC)
[6] = dose: 400.0 mg/kg/injection, schedule: Q04DX002 (ip), vehicle: Klucel (hydroxypropylcellulose) (HPC)
[7] = dose: 100.0 mg/kg/injection, schedule: Q01DX009 (ip), vehicle: Klucel (hydroxypropylcellulose) (HPC)
[8] = dose: 200.0 mg/kg/injection, schedule: Q01DX009 (ip), vehicle: Klucel (hydroxypropylcellulose) (HPC)
[9] = dose: 400.0 mg/kg/injection, schedule: Q01DX009 (ip), vehicle: Klucel (hydroxypropylcellulose) (HPC)
[10] = dose: 50.0 mg/kg/injection, schedule: Q04DX003 (ip), vehicle: saline with Tween-80
[11] = dose: 100.0 mg/kg/injection, schedule: Q04DX003 (ip), vehicle: saline with Tween-80
[12] = dose: 200.0 mg/kg/injection, schedule: Q04DX003 (ip), vehicle: saline with Tween-80
[13] = dose: 400.0 mg/kg/injection, schedule: Q04DX003 (ip), vehicle: saline with Tween-80
[14] = dose: 100.0 mg/kg/injection, schedule: Q01DX009 (ip), vehicle: saline
[15] = dose: 100.0 mg/kg/injection, schedule: Q04DX003 (ip), vehicle: saline
[16] = dose: 200.0 mg/kg/injection, schedule: Q01DX009 (ip), vehicle: saline
[17] = dose: 200.0 mg/kg/injection, schedule: Q04DX003 (ip), vehicle: saline
[18] = dose: 400.0 mg/kg/injection, schedule: Q01DX009 (ip), vehicle: saline
[19] = dose: 400.0 mg/kg/injection, schedule: Q04DX003 (ip), vehicle: saline
[20] = dose: 100.0 mg/kg/injection, schedule: Q01DX001 (ip), vehicle: saline
[21] = dose: 200.0 mg/kg/injection, schedule: Q01DX001 (ip), vehicle: saline
[22] = dose: 400.0 mg/kg/injection, schedule: Q01DX001 (ip), vehicle: saline
[23] = dose: 100.0 mg/kg/injection, schedule: Q01DX001 (ip), vehicle: Klucel (hydroxypropylcellulose) (HPC)
[24] = dose: 200.0 mg/kg/injection, schedule: Q01DX001 (ip), vehicle: Klucel (hydroxypropylcellulose) (HPC)
[25] = dose: 400.0 mg/kg/injection, schedule: Q01DX001 (ip), vehicle: Klucel (hydroxypropylcellulose) (HPC)
[26] = dose: 100.0 mg/kg/injection, schedule: Q01DX001 (ip), vehicle: other
[27] = dose: 200.0 mg/kg/injection, schedule: Q01DX001 (ip), vehicle: other
[28] = dose: 400.0 mg/kg/injection, schedule: Q01DX001 (ip), vehicle: other

Measured: T/C

CN(C)c1ccnc(Cl)n1
inactive: dose: 16.0 mg/kg/injection, schedule: Q01DX Z (ip), vehicle: methylcellulose (MC) 97 % of control | dose: 31.0 mg/kg/injection, schedule: Q01DX Z (ip), vehicle: methylcellulose (MC) 96 % of control | dose: 62.0 mg/kg/injection, schedule: Q01DX Z (ip), vehicle: methylcellulose (MC) 90 % of control | dose: 125.0 mg/kg/injection, schedule: Q01DX Z (ip), vehicle: methylcellulose (MC) 92 % of control and 100 % of control | dose: 250.0 mg/kg/injection, schedule: Q01DX Z (ip), vehicle: methylcellulose (MC) 97 % of control

FC(F)(F)c1nc2nc(Cl)c(Cl)nc2n1CCCN1CCOCC1
inactive: [1] 117 % of control | [2] 107 % of control | [3] 103 % of control

C=CCCCCCCCCC(=O)N/N=C/c1ccccc1OC
inactive: [4] 110 % of control | [5] 104 % of control | [6] 110 % of control

CSc1ccc(NC(=O)/C=C/c2ccccc2)cc1
inactive: [7] 106 % of control | [8] 112 % of control | [9] 102 % of control

CCC1C(=O)NCCNC1=O
inactive: dose: 75.0 mg/kg/injection, schedule: Q01DX001 (ip), vehicle: saline 106 % of control | dose: 150.0 mg/kg/injection, schedule: Q01DX001 (ip), vehicle: saline 93 % of control | dose: 300.0 mg/kg/injection, schedule: Q01DX001 (ip), vehicle: saline 96 % of control

O=C(O)c1ccccc1C(=O)Nc1ccc([N+](=O)[O-])cc1
inactive: dose: 25.0 mg/kg/injection, schedule: Q04DX003 (ip), vehicle: saline with Tween-80 93 % of control | [10] 90 % of control | [11] 98 % of control

CC(=O)CC(Cl)(C(F)(F)F)C(F)(F)F
inactive: [10] 100 % of control | [11] 100 % of control | [12] 86 % of control | [13] 88 % of control

N#CCCN1CCOCC1
inactive: [14] 93 % of control | [15] 97 % of control | [16] 97 % of control | [17] 95 % of control | [18] 95 % of control | [19] 105 % of control

Cn1c(Cl)nc2c(Cl)nc(Cl)nc21
inactive: dose: 6.25 mg/kg/injection, schedule: Q01DX009 (ip), vehicle: Klucel (hydroxypropylcellulose) (HPC) 102 % of control | dose: 12.5 mg/kg/injection, schedule: Q01DX009 (ip), vehicle: Klucel (hydroxypropylcellulose) (HPC) 102 % of control | [20] 92 % of control | [21] 94 % of control | [22] 94 % of control

CCC(C(O)c1cccs1)C(O)(C(F)(F)F)C(F)(F)F (configuration not stated)
inactive: [1] 95 % of control | [11] 95 % of control | [2] 116 % of control | [12] 95 % of control | [3] 97 % of control | [13] 93 % of control

Cc1cc(/C=C\[N+](=O)[O-])c(C)c2c1oc1ccccc12
inactive: [20] 88 % of control | [21] 96 % of control | [22] 88 % of control

Cc1cc(Cc2cc(C)c(N)cc2N)c(N)cc1N
inactive: [20] 88 % of control | [21] 93 % of control | [22] 90 % of control

O=C1c2ccccc2C(=O)c2cc(S(=O)(=O)O)ccc21
inactive: [11] 95 % of control | [12] 95 % of control | [13] 95 % of control

CCC(C)N(CCCOC(=O)c1ccc(N)cc1)C(C)CC (configuration not stated)
inactive: dose: 12.5 mg/kg/injection, schedule: Q01DX009 (ip), vehicle: saline 106 % of control | dose: 25.0 mg/kg/injection, schedule: Q01DX009 (ip), vehicle: saline 104 % of control | dose: 50.0 mg/kg/injection, schedule: Q01DX009 (ip), vehicle: saline 97 % of control

COc1ccc([N+](=O)[O-])cc1NC(=O)N(Cc1ccccc1)c1ccccc1
inactive: dose: 50.0 mg/kg/injection, schedule: Q01DX009 (ip), vehicle: Klucel (hydroxypropylcellulose) (HPC) 96 % of control | [7] 93 % of control | [8] 96 % of control

CCC(C(=O)NC(=O)NO)c1ccccc1 (configuration not stated)
inactive: dose: 100.0 mg/kg/injection, schedule: Q01DX Z (ip), vehicle: carboxymethylcellulose (CMC) 94 % of control | dose: 300.0 mg/kg/injection, schedule: Q01DX Z (ip), vehicle: carboxymethylcellulose (CMC) 105 % of control | dose: 400.0 mg/kg/injection, schedule: Q01DX Z (ip), vehicle: carboxymethylcellulose (CMC) 90 % of control

CCCCCCCCCCCCCCCCN(C(C)c1ccccc1)S(=O)(=O)c1ccc(OC)c(N)c1 (configuration not stated)
inactive: [23] 93 % of control | [7] 94 % of control | dose: 100.0 mg/kg/injection, schedule: Q04DX003 (ip), vehicle: Klucel (hydroxypropylcellulose) (HPC) 98 % of control | [24] 88 % of control | [8] 94 % of control | dose: 200.0 mg/kg/injection, schedule: Q04DX003 (ip), vehicle: Klucel (hydroxypropylcellulose) (HPC) 98 % of control | [25] 88 % of control | [9] 95 % of control | dose: 400.0 mg/kg/injection, schedule: Q04DX003 (ip), vehicle: Klucel (hydroxypropylcellulose) (HPC) 98 % of control

CC(O)C(C)(O)C(=O)O (configuration not stated)
inactive: [14] 100 % of control | [15] 104 % of control | [16] 90 % of control | [17] 95 % of control | [19] 101 % of control

CCCC/C(=N/NC(N)=O)C(OC)OC
inactive: [26] 92 % of control | [27] 86 % of control | [28] 94 % of control

O=C(Cl)c1cccc2c([N+](=O)[O-])cccc12
inactive: dose: 22.0 mg/kg/injection, schedule: Q01DX001 (ip), vehicle: other 96 % of control and 100 % of control | dose: 33.0 mg/kg/injection, schedule: Q01DX001 (ip), vehicle: other 103 % of control and 105 % of control | dose: 75.0 mg/kg/injection, schedule: Q01DX001 (ip), vehicle: other 103 % of control and 107 % of control | [26] 97 % of control | [27] 101 % of control | [28] 106 % of control

O=C(Nc1cccc(Br)c1)c1cc(Cl)cc(Cl)c1Br
inactive: dose: 87.5 mg/kg/injection, schedule: Q04DX003 (ip), vehicle: saline with Tween-80 105 % of control | dose: 175.0 mg/kg/injection, schedule: Q04DX003 (ip), vehicle: saline with Tween-80 97 % of control | dose: 350.0 mg/kg/injection, schedule: Q04DX003 (ip), vehicle: saline with Tween-80 97 % of control

O=C(O)c1cc([N+](=O)[O-])cs1
inactive: [20] 98 % of control | [21] 104 % of control

CC(CC(=O)C[N+](=O)[O-])=Nc1ccccc1
inactive: [4] 90 % of control | [5] 104 % of control | [6] 97 % of control

Cc1ccc(C(=O)C(Br)C(Br)c2ccc(C)cc2)cc1 (configuration not stated)
inactive: [23] 105 % of control | [7] 96 % of control | [24] 99 % of control | [8] 91 % of control | [25] 94 % of control | [9] 95 % of control

Cc1cccc(CNCC(=O)O)c1
inactive: [14] 105 % of control | [15] 92 % of control | [16] 92 % of control | [17] 98 % of control | [18] 105 % of control | [19] 98 % of control

Reference: PubChem BioAssay AID248 (DTP/NCI, 2004)
